Calls of active or inactive are those of the source. The calls are words filed in the database; no cut-off is given here.
Experiments:
Homo sapiens = species: Homo sapiens; assay: Inhibition of ERK phosphorylation in human H23 cells harboring with p53 mutant under detachment conditions at 0.05 to 0.5 uM after 12 hrs by Western blot analysis; format: cell-based
NCI-H460 [1] = assay: Inhibition of epithelial-mesenchymal transition in human H460 cells under detachment conditions assessed as decrease in snail protein level 0.05 to 0.5 uM after 12 hrs by Western blot analysis; format: functional, cell-based
NCI-H460 [2] = assay: Antiproliferative activity against human H460 cells assessed as reduction in cell viability at 0.05 to 0.5 uM after 24 hrs by MTT assay; format: functional, cell-based
NCI-H460 [3] = assay: Effect on total ERK protein level in human H460 cells under detachment conditions at 0.05 to 0.5 uM after 12 hrs by Western blot analysis; format: ADME, cell-based; conditions: nci-h460, 12 h
NCI-H460 [4] = assay: Induction of apoptosis in human H460 cells under detachment conditions assessed as viable cells at 0.5 uM after 24 hrs by Annexin V-FITC/propidium iodide staining-based flow cytometric analysis (reference value: 60.43%); format: functional
[5] = target: T1, Serine/threonine-protein kinase AKT (Homo sapiens) (UniProt P31751+Q9Y243+P31749); assay: Inhibition of AKT phosphorylation in human H23 cells harboring with p53 mutant under detachment conditions at 0.05 to 0.5 uM after 12 hrs by Western blot analysis; format: cell-based
T1 sequence (P31749 whole entry, looked up): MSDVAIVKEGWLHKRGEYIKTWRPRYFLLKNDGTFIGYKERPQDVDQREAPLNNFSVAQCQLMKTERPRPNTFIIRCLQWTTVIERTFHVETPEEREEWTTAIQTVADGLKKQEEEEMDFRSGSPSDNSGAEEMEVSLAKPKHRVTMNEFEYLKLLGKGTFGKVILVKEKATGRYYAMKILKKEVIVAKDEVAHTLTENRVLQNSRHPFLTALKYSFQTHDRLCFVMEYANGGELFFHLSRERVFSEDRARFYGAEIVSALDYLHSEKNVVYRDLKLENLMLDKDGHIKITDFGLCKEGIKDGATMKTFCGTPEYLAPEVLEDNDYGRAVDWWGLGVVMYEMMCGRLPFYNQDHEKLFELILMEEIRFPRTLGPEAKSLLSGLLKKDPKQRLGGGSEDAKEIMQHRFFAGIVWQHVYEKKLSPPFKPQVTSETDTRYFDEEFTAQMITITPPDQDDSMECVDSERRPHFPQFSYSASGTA
T1 sequence (P31751 whole entry, looked up): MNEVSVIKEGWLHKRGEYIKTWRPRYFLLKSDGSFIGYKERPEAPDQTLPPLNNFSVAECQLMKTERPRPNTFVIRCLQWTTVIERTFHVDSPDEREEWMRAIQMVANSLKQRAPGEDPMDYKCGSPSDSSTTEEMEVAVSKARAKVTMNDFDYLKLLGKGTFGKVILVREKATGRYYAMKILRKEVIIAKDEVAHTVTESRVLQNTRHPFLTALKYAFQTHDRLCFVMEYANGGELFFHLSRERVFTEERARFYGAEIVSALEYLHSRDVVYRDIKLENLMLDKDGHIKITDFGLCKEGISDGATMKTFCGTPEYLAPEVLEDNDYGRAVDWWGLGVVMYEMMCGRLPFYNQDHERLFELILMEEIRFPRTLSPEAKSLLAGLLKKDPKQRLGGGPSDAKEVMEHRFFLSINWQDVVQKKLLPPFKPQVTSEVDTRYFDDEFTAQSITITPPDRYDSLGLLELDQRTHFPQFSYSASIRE
T1 sequence (Q9Y243 whole entry, looked up): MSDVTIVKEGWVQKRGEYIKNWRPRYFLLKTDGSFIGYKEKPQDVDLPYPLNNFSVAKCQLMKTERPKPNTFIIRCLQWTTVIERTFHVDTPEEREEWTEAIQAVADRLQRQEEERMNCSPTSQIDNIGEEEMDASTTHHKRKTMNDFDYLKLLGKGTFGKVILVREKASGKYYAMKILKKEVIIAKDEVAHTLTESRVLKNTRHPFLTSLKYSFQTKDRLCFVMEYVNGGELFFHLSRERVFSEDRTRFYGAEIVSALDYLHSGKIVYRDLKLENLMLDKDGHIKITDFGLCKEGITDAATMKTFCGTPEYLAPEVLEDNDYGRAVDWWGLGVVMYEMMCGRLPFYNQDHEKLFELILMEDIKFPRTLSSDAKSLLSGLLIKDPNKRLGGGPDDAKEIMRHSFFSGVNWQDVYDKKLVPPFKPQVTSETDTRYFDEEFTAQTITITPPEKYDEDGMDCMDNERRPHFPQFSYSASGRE

NCI-H460 [6] = assay: Down regulation of caveolin-1 human H460 cells under detachment conditions at 0.05 to 0.5 uM after 12 hrs by Western blot analysis; format: functional, cell-based
NCI-H23 [7] = assay: Induction of apoptosis in human H23 cells under detachment conditions assessed as necrotic cells at 0.5 uM after 24 hrs by Annexin V-FITC/propidium iodide staining-based flow cytometric analysis (reference value: 0.41%); format: functional
NCI-H460 [8] = assay: Induction of apoptosis in human H460 cells at 1 uM after 24 hrs by Hoechst 33342/propidium iodide staining based fluorescent microscopic method; format: functional, cell-based
NCI-H460 [9] = assay: Induction of anoikis in human H460 cells under detachment conditions assessed as decrease in BCL-2 level at 0.1 to 0.5 uM after 12 hrs by Western blot analysis; format: functional, cell-based
NCI-H23 [10] = assay: Inhibition of epithelial-mesenchymal transition in human H23 cells harboring with p53 mutant under detachment conditions assessed as decrease in vimentin protein level 0.05 to 0.5 uM after 12 hrs by Western blot analysis; format: functional, cell-based
NCI-H460 [11] = assay: Antiproliferative activity against human H460 cells under detachment conditions assessed as reduction in cell viability at 0.05 uM after 6 hrs by XTT assay; format: functional, cell-based
NCI-H23 [12] = assay: Antiproliferative activity against human H23 cells assessed as reduction in cell viability at 0.05 to 0.5 uM; format: functional, cell-based
NCI-H460 [13] = assay: Induction of apoptosis in human H460 cells under detachment conditions assessed as early apoptotic cells at 0.5 uM after 24 hrs by Annexin V-FITC/propidium iodide staining-based flow cytometric analysis (reference value: 22.55%); format: functional
NCI-H460 [14] = assay: Induction of anoikis in human H460 cells under detachment conditions assessed as fold change at 0.5 uM after 24 hrs by Annexin V-FITC/propidium iodide staining-based flow cytometric analysis; format: functional
NCI-H460 [15] = assay: Effect on total AKT protein level in human H460 cells under detachment conditions at 0.05 to 0.5 uM after 12 hrs by Western blot analysis; format: ADME, cell-based; conditions: nci-h460, 12 h
NCI-H292 [16] = assay: Antiproliferative activity against human NCI-H292 cells under detachment conditions assessed as reduction in cell viability at 0.05 to 0.5 uM up to 24 hrs by XTT assay; format: functional, cell-based
NCI-H292 [17] = assay: Induction of apoptosis in human NCI-H292 cells under detachment conditions assessed as late apoptotic cells at 0.5 uM after 24 hrs by Annexin V-FITC/propidium iodide staining-based flow cytometric analysis (reference value: 28.21%); format: functional
[18] = target: T1, Serine/threonine-protein kinase AKT (Homo sapiens); assay: Inhibition of AKT phosphorylation in human H460 cells under detachment conditions at 0.05 to 0.5 uM after 12 hrs by Western blot analysis; format: cell-based
NCI-H460 [19] = assay: Induction of anoikis in human H460 cells under detachment conditions after 12 hrs by Western blot analysis; format: functional, cell-based
NCI-H23 [20] = assay: Inhibition of epithelial-mesenchymal transition in human H23 cells harboring with p53 mutant under detachment conditions assessed as increase in E-cadherin protein level 0.05 to 0.5 uM after 12 hrs by Western blot analysis; format: functional, cell-based
NCI-H23 [21] = assay: Induction of anoikis in human H23 cells harboring with p53 mutant under detachment conditions assessed as decrease in MCL-1 level at 0.05 to 0.5 uM after 12 hrs by Western blot analysis; format: functional, cell-based
NCI-H460 [22] = assay: Inhibition of epithelial-mesenchymal transition in human H460 cells under detachment conditions assessed as increase in E-cadherin protein level 0.05 to 0.5 uM after 12 hrs by Western blot analysis; format: functional, cell-based
NCI-H460 [23] = assay: Induction of apoptosis in human H460 cells under detachment conditions assessed as necrotic cells at 0.5 uM after 24 hrs by Annexin V-FITC/propidium iodide staining-based flow cytometric analysis (reference value: 1.58%); format: functional
NCI-H460 [24] = assay: Induction of apoptosis in human H460 cells under detachment conditions assessed as accumulation of necrotic cells at 0.05 to 0.5 uM after 24 hrs by Hoechst 33342/propidium iodide staining based fluorescent microscopic method; format: functional, cell-based
NCI-H292 [25] = assay: Induction of apoptosis in human NCI-H292 cells under detachment conditions assessed as early apoptotic cells at 0.5 uM after 24 hrs by Annexin V-FITC/propidium iodide staining-based flow cytometric analysis (reference value: 29.96%); format: functional
NCI-H292 [26] = assay: Antiproliferative activity against human NCI-H292 cells assessed as reduction in cell viability at 0.05 to 0.5 uM; format: functional, cell-based
NCI-H23 [27] = assay: Induction of anoikis in human H23 cells under detachment conditions assessed as reduction in cell viability at 0.05 uM up to 24 hrs by XTT assay; format: functional, cell-based
NCI-H460 [28] = assay: Induction of apoptosis in human H460 cells under detachment conditions assessed as late apoptotic cells at 0.5 uM after 24 hrs by Annexin V-FITC/propidium iodide staining-based flow cytometric analysis (reference value: 15.44%); format: functional

COC1=C(C)C(=O)C2=C(C1=O)[C@@H]1[C@@H]3CC4=C(C(=O)C(OC)=C(C)C4=O)[C@H](CO)N3[C@@H](C#N)[C@H](C2)N1C [JOURNNAMYCIN A]
inhibition (Homo sapiens): Active
inhibition (NCI-H460 [1]): Active
Activity (NCI-H460 [2]): inactive
Activity (NCI-H460 [3]): Non-Toxic
fold change (FC) (NCI-H460 [4]): 2
inhibition [5]: Active
Activity (NCI-H460 [6]): Active
Activity (NCI-H23 [7]): 0.49%
Activity (NCI-H460 [8]): Active
Activity (NCI-H460 [9]): Active
inhibition (NCI-H23 [10]): Active
Activity (NCI-H460 [11]): Active
Activity (NCI-H23 [12]): inactive
Activity (NCI-H460 [13]): 26.4%
Activity (NCI-H460 [14]): 1.39%
Activity (NCI-H460 [15]): Non-Toxic
Activity (NCI-H292 [16]): Active
Activity (NCI-H292 [17]): 28.13%
inhibition [18]: Active
Activity (NCI-H460 [19]): Dose-dependent effect
inhibition (NCI-H23 [20]): Active
Activity (NCI-H23 [21]): Active
inhibition (NCI-H460 [22]): Active
Activity (NCI-H460 [23]): 24.2%
Activity (NCI-H460 [24]): inactive
Activity (NCI-H292 [25]): 45.68%
Activity (NCI-H292 [26]): inactive
Activity (NCI-H23 [27]): Active
Activity (NCI-H460 [28]): 48.01%
